Data reported in ChEMBL document CHEMBL1201862, “PubChem BioAssay data set” (2004).
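Method: 48-hour compound exposure of cells in 96-well plates, five concentrations, linear interpolation of endpoints. The concentration for 50% growth inhibition is given as GI50.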 Active and inactive are the calls of the source. No stated cut-off is given here; in the data, active = GI50 up to about 1.1 µM and inactive = higher.

Experiments:
Assay in all cases: inhibition of tumour cell growth, NCI panel, 48 h
[1] = tested on: DMS-114
[2] = tested on: LXFL 529
[3] = tested on: SNB-78
[4] = tested on: HOP-18
[5] = tested on: DMS-273
[6] = tested on: RXF 631
[7] = tested on: M19-MEL
[8] = tested on: KM-20L2
[9] = tested on: XF498

Row | Structure (SMILES) | GI50 [1] | GI50 [2] | GI50 [3] | GI50 [4] | GI50 [5] | GI50 [6] | GI50 [7] | GI50 [8] | GI50 [9]
1 | Brc1ccccc1/C=N\C12CC3CC(CC(C3)C1)C2 | 5.77 µM (inactive) | 10.3 µM (inactive) | > 91.4 µM (inactive) | > 100 µM (inactive) | 11.3 µM (inactive) | > 79.4 µM (inactive) | > 76.6 µM (inactive) | > 100 µM (inactive) | > 100 µM (inactive)
2 | Fc1ccc(C2SCc3nc4ccccc4n32)cc1Cl (stereo not given) | 19.9 µM (inactive) | 18.6 µM (inactive) | 48.8 µM (inactive) |  | > 10 µM (inactive) | 32.9 µM (inactive) | 19.8 µM (inactive) | 29.9 µM (inactive) | 14 µM (inactive)
3 | Cc1cc(C)nc(NS(=O)(=O)c2ccc(Nc3c4ccccc4nc4c(C(=O)NCCN(C)C)cccc34)cc2)n1 | 1.04 µM (active) | 4.25 µM (inactive) | 11.5 µM (inactive) |  | 0.813 µM (active) | 0.986 µM (active) | 3.44 µM (inactive) | 6.61 µM (inactive) | 13.7 µM (inactive)
4 | O=C(N/C(=C\c1ccc(/C=C(\NC(=O)c2ccccc2)c2nc3ccccc3[nH]2)cc1)c1nc2ccccc2[nH]1)c1ccccc1 | > 100 µM (inactive) | > 100 µM (inactive) | > 100 µM (inactive) | > 100 µM (inactive) | 52.8 µM (inactive) |  | > 100 µM (inactive) | > 100 µM (inactive) | > 100 µM (inactive)
5 | COc1cc(CCc2ccncc2)cc(OC)c1OC | > 100 µM (inactive) | > 100 µM (inactive) | > 100 µM (inactive) | > 100 µM (inactive) | > 100 µM (inactive) | > 100 µM (inactive) | > 100 µM (inactive) | > 100 µM (inactive) | > 100 µM (inactive)
6 | N/N=C(\CCN1CCCC1)CC(c1ccccc1)c1c(O)c2ccccc2oc1=O (stereo not given) | > 100 µM (inactive) | > 100 µM (inactive) | > 100 µM (inactive) | > 100 µM (inactive) | > 100 µM (inactive) |  | > 100 µM (inactive) | > 100 µM (inactive) | 
7 | Cc1nc2ccccc2[s+]c1-c1cnc(NC#N)nc1C(=O)Nc1cccc(Cl)c1 | > 100 µM (inactive) | > 100 µM (inactive) | > 100 µM (inactive) | > 100 µM (inactive) | > 100 µM (inactive) |  | > 100 µM (inactive) | > 100 µM (inactive) | 
8 | COc1cc2c(cc1OC)C1Cc3cc(OC)c(OC)cc3N1CC2 (stereo not given) | 15.1 µM (inactive) | 19.3 µM (inactive) | 39.8 µM (inactive) |  |  |  | 13.3 µM (inactive) | 38.6 µM (inactive) | 18.5 µM (inactive)
9 | N#CC(C(=O)C(=O)C(C#N)c1ccc(Br)cc1)c1ccc(Br)cc1 (stereo not given) | 12.1 µM (inactive) |  | 12.2 µM (inactive) | 11.4 µM (inactive) | 12.1 µM (inactive) |  | 12.1 µM (inactive) | 12.2 µM (inactive) | 
10 | COC1CC(n2cc(F)c(N)nc2=O)OC1CO (stereo not given) | > 100 µM (inactive) | > 100 µM (inactive) | > 100 µM (inactive) | 49.4 µM (inactive) | > 100 µM (inactive) | > 100 µM (inactive) |  | > 100 µM (inactive) | > 100 µM (inactive)
11 | CN(C)CCC(/C=C/c1ccccc1)=N\Nc1ccc(Cl)c(Cl)c1 |  | 2 µM (inactive) | 3.58 µM (inactive) | 2.67 µM (inactive) | 2.36 µM (inactive) | 2.37 µM (inactive) | 4.31 µM (inactive) | 2.02 µM (inactive) | 2.3 µM (inactive)
12 | O=S(=O)(N/N=C/c1ccc(Cl)cc1Cl)c1ccccc1 | 29.4 µM (inactive) | 74.3 µM (inactive) | > 100 µM (inactive) | 57.5 µM (inactive) | 66.7 µM (inactive) | 61.1 µM (inactive) | > 100 µM (inactive) | 85.1 µM (inactive) | 78.7 µM (inactive)
13 | Cc1ccc(S(=O)(=O)OC2CS[S+]([O-])CC2OS(=O)(=O)c2ccc(C)cc2)cc1 (stereo not given) | 17.9 µM (inactive) | 14.5 µM (inactive) | 17 µM (inactive) | 22.6 µM (inactive) | 18.9 µM (inactive) | 16.6 µM (inactive) | 16.6 µM (inactive) | 17.7 µM (inactive) | 13.6 µM (inactive)
14 | NC(=O)c1csc(C2C=CC(CO)O2)n1 (stereo not given) | > 100 µM (inactive) | > 100 µM (inactive) | > 100 µM (inactive) | > 100 µM (inactive) | > 100 µM (inactive) | > 100 µM (inactive) |  | > 100 µM (inactive) | > 100 µM (inactive)
15 | C=C(C(=C)P(=S)(C(C)C)C(C)C)P(=S)(C(C)C)C(C)C | > 100 µM (inactive) | > 100 µM (inactive) | > 100 µM (inactive) |  | > 100 µM (inactive) | > 100 µM (inactive) | > 100 µM (inactive) | > 100 µM (inactive) | > 100 µM (inactive)
16 | CC(C)c1ccccc1NC(=O)CCc1n[nH]c(=S)o1 | > 67 µM (inactive) | > 79.8 µM (inactive) | > 100 µM (inactive) | > 100 µM (inactive) | > 54.3 µM (inactive) | > 100 µM (inactive) | > 100 µM (inactive) | > 100 µM (inactive) | > 100 µM (inactive)
17 | O=C(/C=C/c1ccc(Cl)cc1)c1ccncc1 | 48.1 µM (inactive) | 60.5 µM (inactive) | > 100 µM (inactive) | > 100 µM (inactive) | 69.3 µM (inactive) | 31.8 µM (inactive) | 26.9 µM (inactive) | 35.9 µM (inactive) | 
18 | COC(=O)C1=C(O)c2cc(-c3ccccc3)c(-c3ccccc3)c(C#N)c2NC(=O)C1 | 29.6 µM (inactive) | 1.3 µM (inactive) | 14 µM (inactive) | < 0.01 µM (active) | 2.13 µM (inactive) | 3.56 µM (inactive) | 14.5 µM (inactive) | 13.1 µM (inactive) | 49 µM (inactive)
19 | CSC(C1c2ccccc2N(c2ccc(C)cc2)C2=NC(=O)N(C)C(=O)C21Cl)S(=O)(=O)c1ccc(C)cc1 (stereo not given) | 19 µM (inactive) | 17.5 µM (inactive) | 27.9 µM (inactive) |  | 20 µM (inactive) |  | 23.7 µM (inactive) | 21.7 µM (inactive) | 30.8 µM (inactive)
20 | Cc1cc2c(C)n[nH]c2c(C(=O)O)c1C | > 100 µM (inactive) | > 100 µM (inactive) | 36.2 µM (inactive) |  | > 100 µM (inactive) |  | > 100 µM (inactive) | > 100 µM (inactive) | > 100 µM (inactive)
21 | CC(=O)c1c(O)c2c([nH]c1=O)CCCC2 | 25.4 µM (inactive) | > 100 µM (inactive) | > 100 µM (inactive) | > 100 µM (inactive) | 25.6 µM (inactive) | 21.8 µM (inactive) | 21 µM (inactive) | 43.1 µM (inactive) | 64.6 µM (inactive)
22 | C/C(CC(=O)Nc1ccccc1)=N\NC(N)=S | > 100 µM (inactive) | > 100 µM (inactive) | > 100 µM (inactive) |  | > 100 µM (inactive) |  | > 100 µM (inactive) | > 100 µM (inactive) | > 100 µM (inactive)
23 | CCCNCCCCC(NC(C)=O)C(=O)NCc1ccccc1 (stereo not given) | > 100 µM (inactive) | > 100 µM (inactive) | > 100 µM (inactive) |  | > 100 µM (inactive) | > 100 µM (inactive) | > 100 µM (inactive) | > 100 µM (inactive) | > 100 µM (inactive)
24 | O=C(CC1(O)C(=O)Nc2c(Cl)ccc(Cl)c21)c1ccc(Cl)cc1 (stereo not given) | 24.1 µM (inactive) | 25.2 µM (inactive) | 49.1 µM (inactive) | 44.2 µM (inactive) | 27 µM (inactive) | 23.8 µM (inactive) | 18.4 µM (inactive) | 38.1 µM (inactive) | 19.1 µM (inactive)
25 | CC(=O)c1ccc(-c2ccc(C(C)=O)s2)s1 | 1.43 µM (inactive) | > 100 µM (inactive) | > 100 µM (inactive) | > 100 µM (inactive) | > 100 µM (inactive) | > 100 µM (inactive) | > 100 µM (inactive) | > 100 µM (inactive) | > 100 µM (inactive)
